Marks after values point to notes of the source that are not given here. In the oligonucleotide strings, read from the 5' end, every base follows the letter of its sugar. An asterisk marks phosphorothioate; unmarked linkages are phosphodiester. Other units and linkages are bracketed, terminal groups are in braces. A string of capitals states the bases alone. d = 2'-deoxy (DNA)
Experiments:
[1] = tested on: CYP2B1 mRNA; experiment: Melting temperature (Tm) of ODNs used in Example 1; format: physicochemical, rat
Excerpt: The oligo 2B1-ATG (SEQ ID NO: 16) is a 22-mer having 100% complementarity to a region containing the AUG start codon on the rat CYP2B1 mRNA (SEQ ID NO: 39, shown below Table). The oligo 2B1-NRM (SEQ ID NO: 17) has 100% complementarity to the CYP2B1 mRNA starting at base 855. The oligo 2B1-BPB (SEQ ID NO: 36) has the sequence of 2B1-NRM with a two base deletion (indicated in bold in the 2B1-NRM sequence). Each of the oligos 2B1-3MM (SEQ ID NO: 37) and 2B1-CMM (SEQ ID NO: 38) has 2 bases reversed (indicated in bold) compared to the BPB sequence. […] The table gives the melting temperature (Tm), molecular weight, and % homology to CYP2B1 mRNA of each sequence.

[2] = tested on: rat CYP2B1; experiment: Hexobarbital sleep time in rats; format: in vivo
Protocol: Male Sprague-Dawley rats (Sasco, Omaha) weighing between 210 to 290 grams were used for all studies. They were housed in animal quarters at the University of Nebraska Medical Center AAALAC-approved Animal Resource Facility. The animals were exposed to 12 hour light/dark cycle and fed Purina rat chow and tap water ad libitum.
(§1) Rats were injected intraperitoneally (i.p.) with the indicated ODNs (see Table 3) once per day for 2 days, in an amount of lmg/kg body weight per injection. Control rats were injected with saline only. Rats in the “PB” groups were injected i.p. with phenobarbital (Mallinckrodt, St. Louis) at 80 mg/kg body weight per injection, once per day for 2 days. In the groups in which PB was co-administered with ODN, injections were administered simultaneously. Total volume of injections for all groups was […]. Animals in the “2B1-NRM+PB+PRETREATMENT” group also received a dose of 1 mg/kg of 2B1-NRM oligomer (SEQ ID NO: 17) 24 hours prior to the first administration of 2B1-NRM plus PB.
Forty-eight hours following the first (non-pretreatment) injection of ODN and/or PB, the rats were injected i.p. with 100 mg/kg body weight hexobarbital (Sigma, St. Louis), in a total volume of 1 ml/kg body weight, prepared fresh daily. Sleep time, defined as the time period from when the rat is placed on its back to when it regains its righting reflex, was measured. Sleep times are given in Table 5 as the mean of each animal in the group ±standard deviation.

[3] = tested on: CYP2E1; experiment: Microsomal PNP (p-nitrophenol hydroxylase) activity; format: in vivo, rat; settings: liver microsomes
Protocol: Microsomal PNP (p-nitrophenol hydroxylase) activity was used as a measure of induction of CYP2E1, as PB is known to induce many different CYPs, including CYP2E1. CYP2E1 activity was determined by PNP activity as described in Reinke and Moyer, Drug Metab. Dispos. 13:548-52, 1985; Koop, Mol. Phannacol. 29:399404, 1986). Activity was recorded as optical density (OD) per milligram of protein per minute.

[4] = tested on: CYP2B1 protein; experiment: ELISA for CYP2B1 protein in liver microsomes; settings: for HRP activity (CYP2B1 ELISA): liver microsomes
Protocol: as §1
Microsomes were prepared, as described by Franklin and Estabrook (Arch. Biochem. Biophys. 143:318-29, 1971), for determination of enzyme level and activity. The rats were sacrificed using ethyl ether, and livers were perfused with 12 ml of 4% saline via the portal vein and then removed from the animal. The livers were minced, homogenized in 0.25 M sucrose (Sigma) and centrifuged at 8000×G for 20 minutes at 4° C. in a Sorvall RC2-B centrifuge (Dupont). The supernatant was saved, resuspended in 0.25 M sucrose, and centrifuged at 100,000×G for 45 minutes at 4° C. in a Sorvall OTD55B ultracentrifuge (Dupont). The pellet was resuspended in 1.15% KCl (Sigma) and centrifuged at 100,000×G for 1 hour at 4° C. The final pellet was resuspended in an equal volume buffer (10 mM Tris-acetate, 1 mM EDTA, 20% glycerol; Sigma) and frozen at −80° C.
Direct measurement of CYP2B1 protein was performed by an ELISA assay, using an antibody directed to the CYP2B1 protein (Schuurs and Van Weeman, Clin Chim Acta 81(1):1-40, 1977). Fifty μg of microsomal proteins per well were plated in 100 μl 0.35% sodium bicarbonate buffer overnight on a 96 well nunc-immuno plate (InterMed, Skokie, Ill.). The microsomes were washed 3× with 1% bovine serum albumin in PBS (PBS/BSA) and incubated for 1 hr at 37° C. with 200 μl PBS/BSA. The PBS/BSA was removed, and 50 μl of CYP2B1 antibody (Oxygene, Dallas) was added and incubated for 1 hour at 37° C. The microsomes were washed 5× with saline/Tween 20™ (Sigma), and 50 μl horseradish peroxidase (HRP)-conjugated secondary antibody (Bio-Rad) was added. The microsomes were incubated for 1 hour at 37° C., then washed 5× with saline/Tween 20™ and twice with 85% saline. HRP substrate (Kirkegaard & Perry Labs, Gaithersburg, Md.) (100 μl) was added, and the absorbance at 405 nm was read continuously in a microplate reader (Molecular Devices) for 1 hour. Results were recorded as HRP activity in mOD/min.

[5] = tested on: CYP2B1; experiment: PROD assay of liver microsomes (CYP2B1 enzyme activity); format: in vivo, rat; settings: ODN alone
Protocol: Control rats were injected with saline only.
CYP2B1 enzyme activity was determined by pentoxyresorufin O-dealkylation (PROD) activity (Burke et al., 1985). For each microsomal sample, 1 mg protein in 1 ml 0.1 M potassium phosphate buffer, 1 ml 2 μM 5-pentoxyresorufin (Pierce, Rockford, Ill.), and 17 μl 60 mM NADPH were mixed and incubated for 10 minutes at 37° C. The mixture was then added to a 2 ml cuvette and read on a RF5000U spectrofluorophotometer (Shimadzu, Columbia, Md.), using an excitation wavelength of 530 nm and emission wavelength of 585 nm. Concentrations were calculated from a calibration curve of resorufin standards (Pierce, Rockford, Ill.). Results were recorded in nmol resorufin/mg protein/min.

[6] = tested on: rat CYP3A2; experiment: Midazolam sleep time in rats; format: in vivo; settings: 1000 μg/day i.p.; MZ 50 mg/kg i.p.
Protocol: Male Sprague-Dawley rats (Sasco, Omaha) weighing between 210 to 290 grams were used for all studies. The animals were exposed to 12 hour light/dark cycle and fed Purina rat chow and tap water ad libitum.
Sleep time was measured after i.p. injection of 50 mg/kg MZ (Hoffman-La Roche, Nutley, N.J.) at 0 (day 1), 24 (day 2) and […]. The volume of the injection was from 2.0 to 2.4 ml/rat. […] […] Control rats received saline only. Total volume injection was 0.1 ml in saline.

[7] = tested on: CYP3A2; experiment: Erythromycin demethylation (ED) in liver microsomes; format: in vivo, rat; settings: 1000 μg/day i.p.
Protocol: Sleep time was measured after i.p. injection of 50 mg/kg MZ (Hoffman-La Roche, Nutley, N.J.) at 0 (day 1), 24 (day 2) and 48 h (day 4). The volume of the injection was from 2.0 to 2.4 ml/rat. […] The rats were treated with 0.25, 0.50 or 1.00 mg antisense ODN i.p. immediately after the animal had regained its righting reflex determined at 0 and 24 h. Control rats received saline only. Total volume injection was 0.1 ml in saline.
Microsomes were prepared, as described by Franklin and Estabrook (cited above) for determination of enzyme level and activity.
Erythromycin demethylation (ED) was used a measure of CYP3A2 enzymatic activity (Gonzalez, Pharmacol. Rev. 40:243-87, 1989). Activity was recorded as micromoles of formaldehyde per milligram of protein per minute.

[8] = treatment alone (ODN 1 mg/kg or PB 80 mg/kg i.p. once per day for 2 days), hexobarbital 100 mg/kg i.p. at 48 h
[9] = ODN + PB 80 mg/kg injected simultaneously, 2 days, hexobarbital 100 mg/kg i.p.

## 2B1-CMM (antisense AAAGAAGAGAAGGCAGGGAG; chemistry not given here)
[1]
  Tm: 49.5 °C
[2]; ODN alone, versus control
  Effect on hexobarbital sleep time (in words): did not significantly alter HB sleep time from the control
[2]; treatment alone
  Sleep time, Percent of Control: 98.2% of Control
[2]; [8]
  Sleep Time (min ± sd): 23.0 ± 5.3 min
[3]; treatment alone
  PNP activity versus control (in words): no significant differences in PNP activities from control values
[4]; treatment alone
  HRP activity (CYP2B1 ELISA): 10.1 ± 3.3 mOD/min
  HRP activity versus control (in words): no change in HRP activity over control microsomes
[5]
  PROD activity versus control (in words): no change from control

## REV3A2/PS: PS DNA reverse control, SEQ ID NO: 43, 5′-TACCTCGACGAAAGTCGAGAGT-3′ (antisense dT*dA*dC*dC*dT*dC*dG*dA*dC*dG*dA*dA*dA*dG*dT*dC*dG*dA*dG*dA*dG*dT)
[6]
  MZ ST (midazolam sleep time): 22.4 ± 0.6 min
[7]
  ED (erythromycin demethylase activity): 91 μmol HCOH/mg/min

## 2B1-ATG (antisense GGAGCAAGATACTGGGCTCCAT; chemistry not given here)
[1]
  Tm: 68.0 °C
[2]; ODN + PB
  Sleep time, Percent of Control: 82.5% of Control
[2]; [9]
  Sleep Time (min ± sd): 19.3 ± 4.4^b min
[2]; ODN + PB, versus PB group
  Effect on hexobarbital sleep time (in words): sleep time increased significantly over that of the PB group
[2]; ODN alone, versus control
  Effect on hexobarbital sleep time (in words): did not significantly alter sleep time over control
[2]; treatment alone
  Sleep time, Percent of Control: 87.6% of Control
[2]; [8]
  Sleep Time (min ± sd): 20.5 ± 5.3 min
[3]; ODN + PB
  PNP activity versus control (in words): significant increases in PNP activities over that of control
[3]; treatment alone
  PNP activity versus control (in words): no significant differences in PNP activities from control values
[4]; ODN + PB
  HRP activity versus PB-alone group (in words): a significant decrease in HRP activity over the PB-alone group
  HRP activity (CYP2B1 ELISA): 12.9 ± 5.0 mOD/min
[4]; treatment alone
  HRP activity (CYP2B1 ELISA): 13.2 ± 4.4 mOD/min
  HRP activity versus control (in words): no change in HRP activity over control microsomes
[5]
  PROD activity versus control (in words): no change from control

## CCC1(c2ccccc2)C(=O)NC(=O)NC1=O [Phenobarbital (PB), phenobarbital, reference compound]
[2]; treatment alone
  Sleep time, Percent of Control: 48.7% of Control
[2]; [8]
  Sleep Time (min ± sd): 11.4 ± 4.5^a min
[2]; treatment alone (ODN 1 mg/kg or PB 80 mg/kg i.p. once per day for 2 days), hexobarbital 100 mg/kg i.p. at 48 h, listed as PB
  Sleep Time (min ± sd): about 11.4 min
[3]; treatment alone
  PNP activity versus control (in words): significant increases in PNP activities over that of control
[4]; treatment alone
  HRP activity (CYP2B1 ELISA): 22.5 ± 4.2 mOD/min
  HRP activity versus control (in words): significantly greater than the activity of microsomes from control rats

## 2B1-NRM (antisense AAAGAAGAGAGAGAGCAGGGAG; chemistry not given here)
[1]
  Tm: 50.6 °C
[2]; ODN + PB
  Sleep time, Percent of Control: 57.7% of Control
[2]; [9]
  Sleep Time (min ± sd): 13.5 ± 0.9 min
[2]; ODN + PB, versus PB group
  Effect on hexobarbital sleep time (in words): no observable antisense effect
[2]; ODN alone, versus control
  Effect on hexobarbital sleep time (in words): no effect on sleep time compared to control
[2]; ODN pretreatment + PB
  Effect on hexobarbital sleep time (in words): essentially the same as without pretreatment
  Sleep time, Percent of Control: 56.8% of Control
[2]; ODN pretreatment one day before ODN + PB, 2 days, hexobarbital 100 mg/kg i.p.
  Sleep Time (min ± sd): 13.3 ± 3.0 min
[2]; treatment alone
  Sleep time, Percent of Control: 98.2% of Control
[2]; [8]
  Sleep Time (min ± sd): 23.0 ± 3.2 min
[3]; ODN + PB
  PNP activity versus control (in words): significant increases in PNP activities over that of control
[3]; ODN + PB + pretreatment
  PNP activity versus control (in words): significant increases in PNP activities over that of control
[3]; treatment alone
  PNP activity versus control (in words): no significant differences in PNP activities from control values
[4]; ODN + PB
  HRP activity versus PB-alone group (in words): a decrease in HRP activity over that of the PB-alone treatment group
  HRP activity (CYP2B1 ELISA): 17.9 ± 4.6 mOD/min
[4]; ODN + PB + pretreatment
  HRP activity versus PB-alone group (in words): a decrease in HRP activity over that of the PB-alone treatment group
[4]; ODN + PB/Pretreatment
  HRP activity (CYP2B1 ELISA): 18.7 ± 0.3 mOD/min
[4]; treatment alone
  HRP activity (CYP2B1 ELISA): 13.8 ± 5.6 mOD/min
  HRP activity versus control (in words): no change in HRP activity over control microsomes
[5]
  PROD activity versus control (in words): no change from control

## 2B1-3MM (antisense AAAGAAGAGAGAGCAGGGGA; chemistry not given here)
[1]
  Tm: 49.8 °C
[2]; ODN alone, versus control
  Effect on hexobarbital sleep time (in words): slightly lengthened sleep time over the control
[2]; treatment alone
  Sleep time, Percent of Control: 132.4% of Control
[2]; [8]
  Sleep Time (min ± sd): 31.0 ± 9.6 min
[3]; treatment alone
  PNP activity versus control (in words): no significant differences in PNP activities from control values
[4]; treatment alone
  HRP activity (CYP2B1 ELISA): 9.2 ± 5.0 mOD/min
  HRP activity versus control (in words): no change in HRP activity over control microsomes
[5]
  PROD activity versus control (in words): no change from control

— US6673778B1, “Enzyme inhibitors for metabolic redirection” (The Board of Regents of the University of Nebraska, priority 1996, dated 2004)
